Laboratory results: PubChem BioAssay (NCI)
Where “and” joins values, the source holds several entries; their conditions need not be identical. Equal values may be shown once.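 Cultured in 96-well plates, cells were exposed to test compound for 48 hours across five concentrations. GI50 marks 50% less growth. TGI: concentration producing complete growth inhibition.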

Columns and labels:
Assay in all cases: growth of human tumour cells (NCI), 48 h
A549 NSCLC = test system: A549 NSCLC
CAKI-1 renal = test system: CAKI-1 renal
NCI-H460 lung = test system: NCI-H460 lung
RXF 393 renal = test system: RXF 393 renal
SF-268 CNS = test system: SF-268 CNS
SF-539 CNS = test system: SF-539 CNS
A498 renal = test system: A498 renal
MCF7 breast = test system: MCF7 breast
MDA-MB-231 breast = test system: MDA-MB-231 breast
T-47D breast = test system: T-47D breast

SMILES | GI50 (A549 NSCLC) [µM] | TGI (A549 NSCLC) | GI50 (CAKI-1 renal) [µM] | TGI (CAKI-1 renal) | GI50 (NCI-H460 lung) [µM] | TGI (NCI-H460 lung) | GI50 (RXF 393 renal) | TGI (RXF 393 renal) | GI50 (SF-268 CNS) [µM] | TGI (SF-268 CNS) | GI50 (SF-539 CNS) [µM] | TGI (SF-539 CNS) | GI50 (A498 renal) | TGI (A498 renal) | GI50 (MCF7 breast) [µM] | TGI (MCF7 breast) [µM] | GI50 (MDA-MB-231 breast) [µM] | TGI (MDA-MB-231 breast) | GI50 (T-47D breast) [µM] | TGI (T-47D breast) [µM]
N.N.N.N.N.[Cl-].[Co+3].c1ccc(-c2nn[n-]n2)cc1 | > 100 | > 100 µM | > 100 | > 100 µM | > 100 | > 100 µM | > 100 µM | > 100 µM | > 100 | > 100 µM | > 100 | > 100 µM |  |  |  |  |  |  |  | 
CCC(C)[C@H]1O[C@]2(C=C[C@@H]1C)C[C@@H]1C[C@@H](C/C=C(\C)[C@@H](OC3C[C@H](OC)C(O[C@H]4C[C@H](OC)[C@@H](O)[C@H](C)O4)[C@H](C)O3)[C@@H](C)/C=C/C=C3\CO[C@@H]4[C@H](O)C(C)=C[C@@H](C(=O)O1)[C@]34O)O2 (some centres not stated) | 1.22 | 7.04 µM |  |  |  |  | 0.939 µM | 3.5 µM | 1.01 | 2.14 µM | 1.5 | 4.49 µM | 0.5 µM | 1.14 µM | 1.85 | 5.72 | 1.42 | 5.81 µM | 1.09 | 3.58
c1ccc(CN2CCC3(CC2)SSC2(CCN(Cc4ccccc4)CC2)S3)cc1 |  | > 100 µM |  | 85.5 µM |  | 84.6 µM |  |  |  |  |  | > 100 µM |  |  |  |  |  | > 100 µM |  | 
c1ccc(C(c2ccccc2)c2cccnc2)cc1 |  | > 100 µM |  | > 100 µM |  | > 100 µM |  |  |  | > 100 µM |  | > 100 µM |  | > 100 µM |  |  |  |  |  | 
O=C(NC(=O)c1cn(CCN(CCO)C(=O)NCCCCCCNC(=O)N(CCO)CCn2cc(C(=O)NC(=O)OCc3ccccc3)c(=O)[nH]c2=O)c(=O)[nH]c1=O)OCc1ccccc1 |  | > 100 µM |  | > 100 µM |  | > 100 µM |  | > 100 µM |  |  |  | > 100 µM |  |  |  |  |  |  |  | 
C[C@]12CCC(=O)C=C1CC[C@@H]1C2CC[C@]2(C)Nc3c(cnn3-c3ccccc3)CC12 (some centres not stated) |  | > 100 µM |  | > 100 µM |  | > 100 µM |  | > 100 µM |  |  |  | > 100 µM |  | > 100 µM |  |  |  |  |  | 
O=C(N/C(=C/c1ccc(Cl)cc1Cl)c1nc2ccccc2s1)c1ccccc1 |  | 53.8 µM |  | 30 µM |  | 52.2 µM |  | 54.9 µM |  | 34 µM |  | 31.1 µM |  |  |  | 52.1 |  | 22.3 µM |  | 43.3
COC1/C=C/C(C)C(C(C)C(OC)C(C)CCC(=O)C(C)C(C/C=C/N(C)C=O)OC)OC(=O)/C=C/C=C(\C)CC(OC)CC2=CC(=O)O[C@H](C2)C(C)C(OC)CC(OC)/C=C/C(C)C(OC)C1 (some centres not stated) | 0.0185 | 0.271 µM and 0.284 µM | 0.00682 | 0.0308 µM and 0.0117 µM | 0.01 | 0.118 µM and 0.097 µM | 0.0378 µM | 0.141 µM and 0.0376 µM | 0.04 | 0.485 µM and 0.612 µM |  |  | 0.0176 µM | 0.0508 µM |  |  | 0.0114 | 0.0584 µM | 0.168 | 0.488
O=c1c2ccccc2c(=O)n2n1CC=CC2 |  | > 100 µM |  | > 100 µM |  |  |  | > 100 µM |  | > 100 µM |  | > 100 µM |  | > 100 µM |  |  |  |  |  | 
CCOC1=C2C(=O)OC(=O)C2C2CCCCC2=C1 (configuration not stated) |  | > 100 µM |  | > 100 µM |  | > 100 µM |  | > 100 µM |  | > 100 µM |  | > 100 µM |  |  |  |  |  |  |  | 
C#CC1(O)C(COP(=O)(O)OC(COCCCCCCCCCCCCCCCCCC)COP(=O)(O)OCC2OC(n3cc(F)c(=O)[nH]c3=O)CC2O)OC(n2ccc(N)nc2=O)C1O (configuration not stated) |  | > 38.3 µM and 22.6 µM |  | 6.72 µM |  | 15.3 µM and 15.1 µM | 0.306 µM and 2.46 µM | 17.3 µM and 22.5 µM |  | 15.9 µM and 15.1 µM |  | 12.2 µM and 22.3 µM | 0.389 µM and 0.189 µM | 14 µM and 5.12 µM |  |  |  | 26.7 µM and 31.1 µM |  | 
